Measured values published in US8916555B2, “3,5-diaminopyrazole kinase inhibitors” (Axikin Pharmaceuticals, Inc., priority 2012, dated 2014).

Legend:
[1] = molecular target: T1, kinase domain protein of RC kinase (Homo sapiens, UniProt Q56UN5); experiment: Enzymatic assay for kinase inhibitory activity (Crebtide substrate, LANCE readout), kinase domain protein; format: biochemical; conditions: test compound 1 μM, ATP 1 μM, Crebtide 50 nM
T1 sequence (Q56UN5 1061-1324 limits assumed): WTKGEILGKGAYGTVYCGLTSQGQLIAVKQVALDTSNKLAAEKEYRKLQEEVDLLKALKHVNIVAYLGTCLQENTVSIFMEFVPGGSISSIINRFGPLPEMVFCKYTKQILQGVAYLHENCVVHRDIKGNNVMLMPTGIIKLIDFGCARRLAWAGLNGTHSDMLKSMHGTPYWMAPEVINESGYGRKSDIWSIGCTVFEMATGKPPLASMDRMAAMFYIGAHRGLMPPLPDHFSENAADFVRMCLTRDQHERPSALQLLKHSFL
Method: Solutions of a test compound, Crebtide (a substrate), a kinase, and ATP were prepared using 1×MAPK Buffer (50 mM HEPES, 1 mM EGTA, […], 10 mM MgCl2, 2 mM DTT, and 0.01% Tween 20).
To each well, the test compound (1 μL) was first added (in duplicate) to reach a final concentration of 1 μM or 1×IC50 of the compound. The kinase (5 μL) was then added to each well to reach a final concentration of […] for the kinase domain or […] for the full-length domain. Each plate included a positive and negative controls in duplicate wells. Crebtide (2.5 μL) was then added to each well in duplicate to reach a final concentration of 50 nM. If the full-length kinase was used, the plates were incubated for 45 min at room temperature before proceeding further. ATP (2.5 μL) was added to each well to reach a final concentration of 1 μM for the kinase domain and 3 μM for the full-length.
After the addition of ATP, the plates were incubated for 45 min at room temperature. During the incubation, an EDTA solution (40 mM) and anti-Crebtide ([…]) were prepared. Additionally, a detection buffer stock solution was diluted ten fold before use.
After the incubation, the anti-Crebtide (5 μL) and EDTA (5 μL) were added to each well to reach their final concentrations of […] and 10 mM, respectively. The plates were allowed to develop at room temperature for 45 min. The plates were then read at 665 nm and 615 nm using Perkin Elmer Lance machine.
The biological results of inhibition of the kinase domain protein of RC kinase are summarized in Tables 2 and 3, wherein A represents at least 50% inhibition of the RC kinase activity at 1 μM; B represents no greater than 50% but at least 20% inhibition of the RC kinase activity at 1 μM; C represents no greater than 20% but at least 5% inhibition of the RC kinase activity at 1 μM; and D represents no greater than 5% inhibition of the RC kinase activity at 1 μM.

Row | SMILES | melting point [°C] | inhibition at 1 µM [1] [%]
1 | NC(=O)c1c(Nc2cccnc2)n[nH]c1NCc1ccc[nH]1 [Compound D53, 5-(((1H-pyrrol-2-yl)methyl)amino)-3-(pyridin-3-ylamino)-1H-pyrazole-4-carboxamide] | 201 to 206 | 5 to 20
2 | NC(=O)c1c(Nc2cccc(Cl)c2)n[nH]c1NCc1ccc[nH]1 [Compound D59] | 193 to 198 | 5 to 20
3 | Cc1ccc(Nc2n[nH]c(NCc3ccc(O)cc3)c2C(N)=O)cc1 [Compound D61, 5-((4-hydroxybenzyl)amino)-3-(p-tolylamino)-1H-pyrazole-4-carboxamide] | 169 to 174 | ≥ 50
4 | CC(=O)c1ccc(Nc2n[nH]c(NCc3ccc(O)cc3)c2C(N)=O)cc1 [Compound D62, 3-((4-acetylphenyl)amino)-5-((4-hydroxybenzyl)amino)-1H-pyrazole-4-carboxamide] | 167 to 172 | ≥ 50
5 | N#CCc1ccc(Nc2n[nH]c(NCc3ccc(O)cc3)c2C(N)=O)cc1 [Compound D64, 3-((4-(cyanomethyl)phenyl)amino)-5-((4-hydroxybenzyl)amino)-1H-pyrazole-4-carboxamide] | 200 to 203 | ≥ 50
6 | CCc1cccc(Nc2n[nH]c(NCc3ccc(O)cc3)c2C(N)=O)c1 [Compound D68, 3-((3-ethylphenyl)amino)-5-((4-hydroxybenzyl)amino)-1H-pyrazole-4-carboxamide] | 208 to 212 | ≥ 50
7 | COc1ccc(CNc2[nH]nc(Nc3cccc(Cl)c3)c2C(N)=O)c(OC)c1OC [Compound D69] | 196 to 200 | 5 to 20
8 | COc1ccc(CNc2[nH]nc(Nc3cccc(Cl)c3)c2C(N)=O)c(C)c1 [Compound D73] | 195 to 199 | 20 to 50
9 | CC(C)N1CCN(c2ccc(Nc3n[nH]c(NCc4ccc(O)cc4)c3C(N)=O)cc2)CC1 [Compound D82, 5-((4-hydroxybenzyl)amino)-3-((4-(4-isopropylpiperazin-1-yl)phenyl)amino)-1H-pyrazole-4-carboxamide] | 210 to 220 | ≥ 50
10 | NC(=O)c1c(Nc2ccc(C(F)(F)F)nc2)n[nH]c1NCc1ccc(O)cc1 [Compound D91] | 259 to 265 | ≥ 50
11 | NC(=O)c1c(Nc2cccc(Cl)c2)n[nH]c1NCc1cccs1 [Compound D95, 3-((3-chlorophenyl)amino)-5-((thiophen-2-ylmethyl)amino)-1H-pyrazole-4-carboxamide] | 222 to 227 | ≤ 5
12 | NC(=O)c1c(Nc2cccc(Cl)c2)n[nH]c1NCc1ccco1 [Compound D96, 3-((3-chlorophenyl)amino)-5-((furan-2-ylmethyl)amino)-1H-pyrazole-4-carboxamide] | 214 to 220 | 20 to 50
13 | Cc1cn(-c2ccc(Nc3n[nH]c(NCc4ccc(O)cc4)c3C(N)=O)cc2)cn1 [Compound D98, 5-((4-hydroxybenzyl)amino)-3-((4-(4-methyl-1H-imidazol-1-yl)phenyl)amino)-1H-pyrazole-4-carboxamide] | 257 to 260 | ≥ 50
14 | NC(=O)c1c(Nc2ccc(N3CCOC(=O)C3)cc2)n[nH]c1NCc1ccc(O)cc1 [Compound D99, 5-((4-hydroxybenzyl)amino)-3-((4-(2-oxomorpholino)phenyl)amino)-1H-pyrazole-4-carboxamide] | 194 to 197 | ≥ 50
15 | NC(=O)c1c(Nc2ccc(N)cc2)n[nH]c1NCc1ccc(O)cc1 [Compound D101, 3-((4-aminophenyl)amino)-5-((4-hydroxybenzyl)amino)-1H-pyrazole-4-carboxamide] | 190 to 193 | ≥ 50
16 | CC1CCN(C2CCN(c3ccc(Nc4n[nH]c(NCc5ccc(O)cc5)c4C(N)=O)cc3)CC2)CC1 [Compound D102, 5-((4-hydroxybenzyl)amino)-3-((4-(4-methyl-[1,4′-bipiperidin]-1′-yl)phenyl)amino)-1H-pyrazole-4-carboxamide] | 220 to 224 | ≥ 50
17 | NC(=O)c1c(Nc2ccc(S(N)(=O)=O)cc2)n[nH]c1NCc1ccc(O)cc1 [Compound D107, 5-((4-hydroxybenzyl)amino)-3-((4-sulfamoylphenyl)amino)-1H-pyrazole-4-carboxamide] | 270 to 275 | ≥ 50

The remaining lines, values ahead:

Row | melting point [°C] | inhibition at 1 µM [1] [%] | SMILES
18 | 228 to 231 | ≥ 50 | NC(=O)c1c(Nc2ccc(-n3ccnc3)cc2)n[nH]c1NCc1ccc(O)cc1 [Compound D60]
19 | 225 to 230 | ≥ 50 | NC(=O)c1ccc(Nc2n[nH]c(NCc3ccc(O)cc3)c2C(N)=O)cc1 [Compound D63, 3-((4-carbamoylphenyl)amino)-5-((4-hydroxybenzyl)amino)-1H-pyrazole-4-carboxamide]
20 | 177 to 180 | ≥ 50 | COc1cccc(Nc2n[nH]c(NCc3ccc(O)cc3)c2C(N)=O)c1 [Compound D65, 5-((4-hydroxybenzyl)amino)-3-((3-methoxyphenyl)amino)-1H-pyrazole-4-carboxamide]
21 | 189 to 194 | ≥ 50 | N#Cc1cccc(Nc2n[nH]c(NCc3ccc(O)cc3)c2C(N)=O)c1 [Compound D66, 3-((3-cyanophenyl)amino)-5-((4-hydroxybenzyl)amino)-1H-pyrazole-4-carboxamide]
22 | 132 to 136 | ≥ 50 | CCOC(=O)c1cccc(Nc2n[nH]c(NCc3ccc(O)cc3)c2C(N)=O)c1 [Compound D67, ethyl 3-((4-carbamoyl-5-((4-hydroxybenzyl)amino)-1H-pyrazol-3-yl)amino)benzoate]
23 | 162 to 168 | ≥ 50 | NC(=O)c1c(Nc2ccc(N3CCOCC3)c(Cl)c2)n[nH]c1NCc1ccc(O)cc1 [Compound D75, 3-((3-chloro-4-morpholinophenyl)amino)-5-((4-hydroxybenzyl)amino)-1H-pyrazole-4-carboxamide]
24 | 250 to 260 | ≥ 50 | NC(=O)c1c(Nc2ccc3[nH]ncc3c2)n[nH]c1NCc1ccc(O)cc1 [Compound D76, 3-((1H-indazol-5-yl)amino)-5-((4-hydroxybenzyl)amino)-1H-pyrazole-4-carboxamide]
25 | 221 to 225 | ≥ 50 | NC(=O)c1c(Nc2ccc(Cl)nc2)n[nH]c1NCc1ccc(O)cc1 [Compound D90, 3-((6-chloropyridin-3-yl)amino)-5-((4-hydroxybenzyl)amino)-1H-pyrazole-4-carboxamide]
26 | 184 to 194 | 20 to 50 | COc1ccc(C(C)C)cc1CNc1[nH]nc(Nc2cccc(Cl)c2)c1C(N)=O [Compound D94]
27 | 219 to 221 | 5 to 20 | NC(=O)c1c(Nc2cccc(Cl)c2)n[nH]c1NCc1ccoc1 [Compound D97]
28 | 208 to 211 | ≥ 50 | NC(=O)c1c(Nc2ccc(N3CCOCC3)c(F)c2)n[nH]c1NCc1ccc(O)cc1 [Compound D100]
29 | 180 to 184 | 20 to 50 | COc1cc(CNc2[nH]nc(NCc3ccc(O)cc3)c2C(N)=O)ccc1F [Compound D105]
